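A five-concentration, 48-hour dose response in 96-well plates underlies each endpoint, interpolated linearly between surrounding concentrations. At the GI50, growth is halved. TGI is the concentration that stops growth completely.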
Columns and labels:
Assay in all cases: inhibition of tumour cell growth, NCI panel, 48 h
786-0 renal = test system: 786-0 renal
A498 renal = test system: A498 renal
A549 NSCLC = test system: A549 NSCLC
ACHN renal = test system: ACHN renal
BT-549 breast = test system: BT-549 breast
CAKI-1 renal = test system: CAKI-1 renal
CCRF-CEM leukemia = test system: CCRF-CEM leukemia
COLO 205 colon = test system: COLO 205 colon
DU-145 prostate = test system: DU-145 prostate
EKVX NSCLC = test system: EKVX NSCLC
HCC-2998 colon = test system: HCC-2998 colon
HCT-116 colon = test system: HCT-116 colon
HCT-15 colon = test system: HCT-15 colon
HL-60(TB) leukemia = test system: HL-60(TB) leukemia
HOP-62 NSCLC = test system: HOP-62 NSCLC
HOP-92 NSCLC = test system: HOP-92 NSCLC
HS 578T breast = test system: HS 578T breast
HT29 colon = test system: HT29 colon
IGROV1 ovarian = test system: IGROV1 ovarian
K-562 leukemia = test system: K-562 leukemia
KM12 colon = test system: KM12 colon
LOX IMVI melanoma = test system: LOX IMVI melanoma
M14 melanoma = test system: M14 melanoma
MALME-3M melanoma = test system: MALME-3M melanoma
MCF7 breast = test system: MCF7 breast
MDA-MB-231 breast = test system: MDA-MB-231 breast
MDA-MB-435 = test system: MDA-MB-435
MDA-MB-468 breast = test system: MDA-MB-468 breast
NCI-H226 lung = test system: NCI-H226 lung
NCI-H23 lung = test system: NCI-H23 lung
NCI-H460 lung = test system: NCI-H460 lung
NCI-H522 lung = test system: NCI-H522 lung
NCI/ADR-RES ovarian = test system: NCI/ADR-RES ovarian
OVCAR-3 ovarian = test system: OVCAR-3 ovarian
OVCAR-4 ovarian = test system: OVCAR-4 ovarian
OVCAR-5 ovarian = test system: OVCAR-5 ovarian
OVCAR-8 ovarian = test system: OVCAR-8 ovarian
PC-3 prostate = test system: PC-3 prostate
RPMI-8226 leukemia = test system: RPMI-8226 leukemia
RXF 393 renal = test system: RXF 393 renal
SF-268 CNS = test system: SF-268 CNS
SF-295 CNS = test system: SF-295 CNS
SF-539 CNS = test system: SF-539 CNS
SK-MEL-2 melanoma = test system: SK-MEL-2 melanoma
SK-MEL-28 melanoma = test system: SK-MEL-28 melanoma
SK-MEL-5 melanoma = test system: SK-MEL-5 melanoma
SK-OV-3 ovarian = test system: SK-OV-3 ovarian
SN12C renal = test system: SN12C renal
SNB-19 CNS = test system: SNB-19 CNS
SNB-75 CNS = test system: SNB-75 CNS
SR leukemia = test system: SR leukemia
SW-620 colon = test system: SW-620 colon
T-47D breast = test system: T-47D breast
TK-10 renal = test system: TK-10 renal
U251 CNS = test system: U251 CNS
UACC-257 melanoma = test system: UACC-257 melanoma
UACC-62 melanoma = test system: UACC-62 melanoma
UO-31 renal = test system: UO-31 renal

N#Cc1c(NC(=O)c2ccc(C(O)(C(F)(F)F)C(F)(F)F)cc2)sc2c1CCC(=O)C2
GI50 (786-0 renal): 1.13 µM
TGI (786-0 renal): 2.89 µM
GI50 (A498 renal): 12.2 µM
TGI (A498 renal): 26.5 µM
GI50 (A549 NSCLC): 2.75 µM
TGI (A549 NSCLC): 12.6 µM
GI50 (ACHN renal): 0.346 µM
TGI (ACHN renal): 1.35 µM
GI50 (BT-549 breast): 0.422 µM
TGI (BT-549 breast): 1.78 µM
GI50 (CAKI-1 renal): 0.465 µM
TGI (CAKI-1 renal): 1.8 µM
GI50 (CCRF-CEM leukemia): 0.338 µM
TGI (CCRF-CEM leukemia): 7.29 µM
GI50 (COLO 205 colon): 0.995 µM
TGI (COLO 205 colon): 2.66 µM
GI50 (DU-145 prostate): 3.38 µM
TGI (DU-145 prostate): 11.7 µM
GI50 (EKVX NSCLC): 2.65 µM
TGI (EKVX NSCLC): 8.4 µM
GI50 (HCC-2998 colon): 1.71 µM
TGI (HCC-2998 colon): 3.15 µM
GI50 (HCT-116 colon): 0.466 µM
TGI (HCT-116 colon): 5.29 µM
GI50 (HCT-15 colon): 1.1 µM
TGI (HCT-15 colon): 2.92 µM
GI50 (HL-60(TB) leukemia): 0.415 µM
TGI (HL-60(TB) leukemia): > 100 µM
GI50 (HOP-62 NSCLC): 3.53 µM
TGI (HOP-62 NSCLC): 13.1 µM
GI50 (HOP-92 NSCLC): 0.475 µM
TGI (HOP-92 NSCLC): 1.46 µM
GI50 (HS 578T breast): 1.77 µM
TGI (HS 578T breast): 5.55 µM
GI50 (HT29 colon): 0.478 µM
TGI (HT29 colon): 6.44 µM
GI50 (IGROV1 ovarian): 1.81 µM
TGI (IGROV1 ovarian): 3.86 µM
GI50 (K-562 leukemia): 0.297 µM
TGI (K-562 leukemia): > 100 µM
GI50 (KM12 colon): 1.46 µM
TGI (KM12 colon): 3.32 µM
GI50 (LOX IMVI melanoma): 0.455 µM
TGI (LOX IMVI melanoma): 1.68 µM
GI50 (M14 melanoma): 0.739 µM
TGI (M14 melanoma): 2.77 µM
GI50 (MALME-3M melanoma): 0.641 µM
TGI (MALME-3M melanoma): 1.94 µM
GI50 (MCF7 breast): 0.616 µM
TGI (MCF7 breast): 2.53 µM
GI50 (MDA-MB-231 breast): 1.47 µM
TGI (MDA-MB-231 breast): 2.93 µM
GI50 (MDA-MB-435): 1.93 µM
TGI (MDA-MB-435): 4.18 µM
GI50 (MDA-MB-468 breast): 0.6 µM
TGI (MDA-MB-468 breast): 1.67 µM
GI50 (NCI-H226 lung): 2.01 µM
TGI (NCI-H226 lung): 5.67 µM
GI50 (NCI-H23 lung): 1.14 µM
TGI (NCI-H23 lung): 2.78 µM
GI50 (NCI-H460 lung): 2.73 µM
TGI (NCI-H460 lung): 8.49 µM
GI50 (NCI-H522 lung): 0.363 µM
TGI (NCI-H522 lung): 1.59 µM
GI50 (NCI/ADR-RES ovarian): 2.27 µM
TGI (NCI/ADR-RES ovarian): 6.78 µM
GI50 (OVCAR-3 ovarian): 1.23 µM
TGI (OVCAR-3 ovarian): 2.53 µM
GI50 (OVCAR-4 ovarian): 1.45 µM
TGI (OVCAR-4 ovarian): 3.39 µM
GI50 (OVCAR-5 ovarian): 1.67 µM
TGI (OVCAR-5 ovarian): 3.38 µM
GI50 (OVCAR-8 ovarian): 2.27 µM
TGI (OVCAR-8 ovarian): 9.4 µM
GI50 (PC-3 prostate): 0.325 µM
TGI (PC-3 prostate): 1.94 µM
GI50 (RPMI-8226 leukemia): 0.434 µM
TGI (RPMI-8226 leukemia): > 100 µM
GI50 (RXF 393 renal): 0.549 µM
TGI (RXF 393 renal): 2.08 µM
GI50 (SF-268 CNS): 2.37 µM
TGI (SF-268 CNS): 7.27 µM
GI50 (SF-295 CNS): 2.13 µM
TGI (SF-295 CNS): 5.24 µM
GI50 (SF-539 CNS): 0.539 µM
TGI (SF-539 CNS): 1.71 µM
GI50 (SK-MEL-2 melanoma): 2.14 µM
TGI (SK-MEL-2 melanoma): 4.36 µM
GI50 (SK-MEL-28 melanoma): 1.29 µM
TGI (SK-MEL-28 melanoma): 2.76 µM
GI50 (SK-MEL-5 melanoma): 1.58 µM
TGI (SK-MEL-5 melanoma): 2.93 µM
GI50 (SK-OV-3 ovarian): 2.88 µM
TGI (SK-OV-3 ovarian): 8.16 µM
GI50 (SN12C renal): 1.29 µM
TGI (SN12C renal): 3.33 µM
GI50 (SNB-19 CNS): 3.44 µM
TGI (SNB-19 CNS): 11.9 µM
GI50 (SNB-75 CNS): 1.31 µM
TGI (SNB-75 CNS): 4.39 µM
GI50 (SR leukemia): 0.546 µM
TGI (SR leukemia): > 34.7 µM
GI50 (SW-620 colon): 0.354 µM
TGI (SW-620 colon): 1.54 µM
GI50 (T-47D breast): 0.496 µM
TGI (T-47D breast): 2.33 µM
GI50 (TK-10 renal): 2.38 µM
TGI (TK-10 renal): 8.7 µM
GI50 (U251 CNS): 0.933 µM
TGI (U251 CNS): 2.71 µM
GI50 (UACC-257 melanoma): 1.83 µM
TGI (UACC-257 melanoma): 4.1 µM
GI50 (UACC-62 melanoma): 1.39 µM
TGI (UACC-62 melanoma): 2.81 µM
GI50 (UO-31 renal): 0.682 µM
TGI (UO-31 renal): 2 µM
